Experimental data published in patent US11059832B2, “HPK1 inhibitors and methods of using same” (University Health Network, priority 2015, dated 2021).

How the values were obtained:
human HPK1 (MAP4K1) = target: T1, human HPK1 (MAP4K1) (Homo sapiens, UniProt Q92918); experiment: HPK1 inhibition assay (indirect ELISA); type: biochemical; details: GST-HPK1 0.6 nM, 12 μM ATP; read-out: IC50 Range HPK1
T1 construct: human HPK1 (aa 1-346); purchased Invitrogen PV6355
T1 sequence (Q92918 1-346): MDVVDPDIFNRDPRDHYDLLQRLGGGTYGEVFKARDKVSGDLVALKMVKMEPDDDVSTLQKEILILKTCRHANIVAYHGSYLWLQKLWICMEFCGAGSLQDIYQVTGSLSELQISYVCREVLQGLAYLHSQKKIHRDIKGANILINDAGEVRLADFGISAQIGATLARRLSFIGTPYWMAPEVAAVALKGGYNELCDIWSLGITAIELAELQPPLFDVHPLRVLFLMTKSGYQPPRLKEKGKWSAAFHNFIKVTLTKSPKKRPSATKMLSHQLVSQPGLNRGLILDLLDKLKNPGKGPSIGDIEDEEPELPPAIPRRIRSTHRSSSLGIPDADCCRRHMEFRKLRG
In short: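 GST-tagged human HPK1 (aa 1-346, 0.6 nM) phosphorylated MBP-coated wells with 12 μM ATP in MOPS pH 7.2/Mg2+ buffer for 30 min after 15-min compound preincubation; phospho-Thr detected by antibody ELISA with TMB, 450 nm. Tested at 10 μM or 10-point titration (typically 50-0.1 μM); IC50 by 4-parameter logistic fit.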

LCK = target: T2, LCK (Homo sapiens, UniProt P06239); experiment: LCK inhibition, FRET based Z'-LYTE Kinase Assay; type: biochemical; details: 25 nM LCK, 180 μM ATP; read-out: IC50 Range Lck
T2 construct: purchased Invitrogen P3043
Experimental: (§1) FLT3 and LCK compound inhibition were determined using FRET based Z′-LYTE Kinase Assay Kit with Tyrosine 2 peptide as the substrate (Invitrogen cat #PV3191). […] The % inhibition values were determined according to the manufacturer's directions and IC50 values were obtained using a non-linear 4 point logistic curve fit (XLfit4, IDBS).

FLT3 = target: T3, FLT3 (Homo sapiens, UniProt P36888); experiment: FLT3 inhibition, FRET based Z'-LYTE Kinase Assay; type: biochemical; details: 1 nM FLT3, 940 μM ATP; read-out: IC50 Range Flt3
T3 construct: purchased Invitrogen PV3182
T3 sequence (P36888 27-993): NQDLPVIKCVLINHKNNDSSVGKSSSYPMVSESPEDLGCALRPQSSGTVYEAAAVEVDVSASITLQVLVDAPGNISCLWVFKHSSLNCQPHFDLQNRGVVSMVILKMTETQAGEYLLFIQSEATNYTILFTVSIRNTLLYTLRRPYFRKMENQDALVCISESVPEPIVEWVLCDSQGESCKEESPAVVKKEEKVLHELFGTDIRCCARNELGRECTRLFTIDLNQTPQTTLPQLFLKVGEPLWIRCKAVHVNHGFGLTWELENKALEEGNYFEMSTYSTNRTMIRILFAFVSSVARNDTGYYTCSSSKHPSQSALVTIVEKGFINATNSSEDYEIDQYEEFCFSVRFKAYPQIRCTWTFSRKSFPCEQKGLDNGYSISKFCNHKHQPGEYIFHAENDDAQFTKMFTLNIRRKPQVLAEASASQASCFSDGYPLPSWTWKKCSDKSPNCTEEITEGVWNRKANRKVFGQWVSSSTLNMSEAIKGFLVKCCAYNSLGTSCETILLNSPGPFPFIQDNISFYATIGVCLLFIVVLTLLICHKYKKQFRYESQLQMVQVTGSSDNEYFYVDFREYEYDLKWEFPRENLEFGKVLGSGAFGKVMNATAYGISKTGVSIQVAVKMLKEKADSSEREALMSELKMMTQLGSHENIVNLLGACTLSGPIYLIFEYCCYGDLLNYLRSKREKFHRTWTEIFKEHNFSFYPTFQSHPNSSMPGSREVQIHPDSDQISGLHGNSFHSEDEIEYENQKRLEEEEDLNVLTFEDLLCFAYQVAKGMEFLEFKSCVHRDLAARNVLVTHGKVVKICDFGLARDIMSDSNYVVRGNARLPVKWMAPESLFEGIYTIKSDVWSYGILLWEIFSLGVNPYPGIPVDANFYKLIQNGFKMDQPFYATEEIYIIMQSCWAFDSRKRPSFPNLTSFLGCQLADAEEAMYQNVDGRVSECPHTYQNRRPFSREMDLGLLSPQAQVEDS
Experimental: as §1

[1] = tested on: SLP-76 serine 376 phosphorylation in α-CD3 stimulated Jurkat E6.1 cells; experiment: In vitro phosphorylation assay, SLP-76 Ser376 (immunoblot); type: cell-based; details: Homo sapiens, 4 h pretreatment, substantive = >75% inhibition as estimated by immunoblot analysis, read-out: SLP76 S376 Phosphorylation Onset-Substantive* Inhibition
Experimental: (§2) Jurkat E6.1 cells were obtained from American Type Culture Collection (ATCC, Manassas, Va.), and maintained according to the supplier's instructions. Cells were washed three times and starved in RPMI 1640 medium supplemented with 0.5% fetal calf serum for 18 h at 37° C. Serum starved cells were pretreated with the indicated concentration of inhibitor for 4 hours before stimulation with 10 μg/ml α-CD3 antibody (BioLegend, Inc., San Diego, Calif.) for 10 min at 37° C. The cells were washed once in phosphate-buffered saline (pH 7.4) containing 10 mm sodium pyrophosphate, 10 mm sodium fluoride, 10 mm EDTA, and 1 mm sodium orthovanadate. Protein lysates were prepared using ice-cold radioimmunoprecipitation assay (RIPA) lysis buffer. A total of 100 μg of cell lysate was loaded onto Bis-Tris gels (Life Technologies, Carlsbad, Calif.) with full-range molecular weight marker as a size reference, and resolved by SDS-PAGE electrophoresis. Proteins were transferred to PVDF membrane (Millipore, Billerica, Mass.), blocked and probed with antibodies for phospho-SLP-76 (Ser376) (rabbit polyclonal #13177; Cell Signaling Technology Inc., Danvers, Mass.), SLP-76 (rabbit polyclonal #4958; Cell Signaling Technology Inc., Danvers, Mass.), phospho-ERK (mouse monoclonal sc-7383; Santa Cruz Biotechnology Inc., Santa Cruz, Calif.) and ERK1/2 (rabbit polyclonal 06-182; Millipore, Billerica, Mass.). Secondary antibodies were diluted 1 in 15,000 and incubated for 1 h at rt. Protein bands were visualized and quantified using Odyssey near infrared imager (LI-COR, Lincoln, Nebr.).
(§3) Table 2 below lists effects of representative compounds of the present invention against SLP-76 serine 376 phosphorylation and ERK1/2 T202/Y204 phosphorylation in α-CD3 stimulated Jurkat E6.1 cells.

[2] = tested on: ERK1/2 T202/Y204 phosphorylation in α-CD3 stimulated Jurkat E6.1 cells; experiment: In vitro phosphorylation assay, ERK1/2 T202/Y204 (immunoblot); type: cell-based; details: Homo sapiens, 4 h pretreatment, read-out: ERK1/2 T202/Y204 Phosphorylation Onset Inhibition
Experimental: as §2, §3

T2 sequence (P06239 whole entry, species assumed): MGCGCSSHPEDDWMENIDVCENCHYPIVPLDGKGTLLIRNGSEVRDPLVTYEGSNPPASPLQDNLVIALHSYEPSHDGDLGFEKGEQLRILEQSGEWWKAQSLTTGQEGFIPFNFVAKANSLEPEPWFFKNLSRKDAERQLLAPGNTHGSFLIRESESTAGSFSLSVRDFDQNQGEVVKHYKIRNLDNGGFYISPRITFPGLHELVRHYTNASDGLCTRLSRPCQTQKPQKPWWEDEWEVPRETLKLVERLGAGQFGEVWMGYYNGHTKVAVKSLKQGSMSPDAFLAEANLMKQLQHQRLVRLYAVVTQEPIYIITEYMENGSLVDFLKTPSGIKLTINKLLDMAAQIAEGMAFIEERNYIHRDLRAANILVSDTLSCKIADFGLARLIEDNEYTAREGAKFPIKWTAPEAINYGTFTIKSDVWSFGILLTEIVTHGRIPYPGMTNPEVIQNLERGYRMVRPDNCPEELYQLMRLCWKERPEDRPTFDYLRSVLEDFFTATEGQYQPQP

Question: What does the source list for CN1CCN(c2ccc3nc(-c4c(N[C@@H]5CCOC5)c5ccsc5[nH]c4=O)[nH]c3c2)CC1 [Example A10, (R)-5-(6-(4-methylpiperazin-1-yl)-1H-benzo[d]imidazol-2-yl)-4-((tetrahydrofuran-3-yl)amino)thieno[2,3-b]pyridin-6(7H)-one]?
Answer: IC50 (human HPK1 (MAP4K1)): ≤ 50 nM; IC50 (LCK): 50 to 500 nM; IC50 (FLT3): ≤ 50 nM; IC75 [1]: 1000 to 3000 nM; minimal effective concentration [2]: > 3 µM

Question: Which results are given for CN1CCC(Nc2c(-c3nc4ccc(N5CCOCC5)cc4[nH]3)c(=O)[nH]c3sccc23)CC1 [Example A18, 4-((1-methylpiperidin-4-yl)amino)-5-(6-morpholino-1H-benzo[d]imidazol-2-yl)thieno[2,3-b]pyridin-6(7H)-one]?
Answer: IC50 (human HPK1 (MAP4K1)): ≤ 50 nM; IC50 (LCK): 50 to 500 nM; IC50 (FLT3): ≤ 50 nM; IC75 [1]: 300 to 1000 nM; minimal effective concentration [2]: > 3 µM

Question: How did the IC50 (human HPK1 (MAP4K1)) turn out when CN1CCN(c2ccc3nc(-c4c(N)c5c(N6CCNCC6)csc5[nH]c4=O)[nH]c3c2)CC1 [Example A21, 4-amino-5-(6-(4-methylpiperazin-1-yl)-1H-benzo[d]imidazol-2-yl)-3-(piperazin-1-yl)thieno[2,3-b]pyridin-6(7H)-one] was run?
Answer: ≤ 50 nM

Question: And the IC50 (LCK)?
Answer: > 500 nM

Question: And the IC50 (FLT3)?
Answer: 50 to 500 nM

Question: And the IC75 [1]?
Answer: > 3000 nM

Question: What about the minimal effective concentration [2] of the same compound?
Answer: > 3 µM

Question: Which IC50 (human HPK1 (MAP4K1)) does the source give for CN1CCN(c2ccc3nc(-c4c(N)c5cscc5[nH]c4=O)[nH]c3c2)CC1 [Example A23, 4-amino-3-(6-(4-methylpiperazin-1-yl)-1H-benzo[d]imidazol-2-yl)thieno[3,4-b]pyridin-2(1H)-one] here?
Answer: ≤ 50 nM

Question: And the IC50 (LCK)?
Answer: ≤ 50 nM

Question: And the IC50 (FLT3)?
Answer: ≤ 50 nM

Question: And the IC75 [1]?
Answer: 300 to 1000 nM

Question: What about the minimal effective concentration [2] of the same compound?
Answer: > 3 µM

Question: Which results are given for CN1CCN(c2ccc3nc(-c4c(N)c5sccc5[nH]c4=O)[nH]c3c2)CC1 [Example A30, 7-amino-6-(6-(4-methylpiperazin-1-yl)-1H-benzo[d]imidazol-2-yl)thieno[3,2-b]pyridin-5(4H)-one]?
Answer: IC50 (human HPK1 (MAP4K1)): ≤ 50 nM; IC50 (LCK): ≤ 50 nM; IC50 (FLT3): ≤ 50 nM; IC75 [1]: 300 to 1000 nM; minimal effective concentration [2]: > 3 µM

Question: For CN1CCN(c2ccc3nc(-c4c(NC5CCCC5)c5sccc5[nH]c4=O)[nH]c3c2)CC1 [Example A34, 7-(cyclopentylamino)-6-(6-(4-methylpiperazin-1-yl)-1H-benzo[d]imidazol-2-yl)thieno[3,2-b]pyridin-5(4H)-one], which IC50 (human HPK1 (MAP4K1)) is on record?
Answer: ≤ 50 nM

Question: And the IC50 (LCK)?
Answer: ≤ 50 nM

Question: What about the IC50 (FLT3) of the same compound?
Answer: ≤ 50 nM

Question: And the IC75 [1]?
Answer: 1000 to 3000 nM

Question: What about the minimal effective concentration [2] of the same compound?
Answer: 3 µM

Question: CN1CCN(c2ccc3nc(-c4c(N[C@H]5CC[C@H](O)CC5)c5sccc5[nH]c4=O)[nH]c3c2)CC1 [Example A37, 7-(((1r,4r)-4-hydroxycyclohexyl)amino)-6-(6-(4-methylpiperazin-1-yl)-1H-benzo[d]imidazol-2-yl)thieno[3,2-b]pyridin-5(4H)-one] was tested. Which IC50 (human HPK1 (MAP4K1)) did it give?
Answer: ≤ 50 nM

Question: What about the IC50 (LCK) of the same compound?
Answer: ≤ 50 nM

Question: What about the IC50 (FLT3) of the same compound?
Answer: ≤ 50 nM

Question: What about the IC75 [1] of the same compound?
Answer: 100 to 300 nM

Question: And the minimal effective concentration [2]?
Answer: 1 to 3 µM

Question: Which results are given for O=c1[nH]c2ccsc2c(NC2CCNCC2)c1-c1nc2ccc(N3CCOCC3)cc2[nH]1 [Example A43, 6-(6-morpholino-1H-benzo[d]imidazol-2-yl)-7-(piperidin-4-ylamino)thieno[3,2-b]pyridin-5(4H)-one]?
Answer: IC50 (human HPK1 (MAP4K1)): ≤ 50 nM; IC50 (LCK): 50 to 500 nM; IC50 (FLT3): ≤ 50 nM; IC75 [1]: 100 to 300 nM; minimal effective concentration [2]: > 3 µM

Question: With CN1CCN(c2ccc3nc(-c4c(N[C@H]5CCCC[C@H]5O)c5ccsc5[nH]c4=O)[nH]c3c2)CC1 [Example A57, 4-(((1S,2R)-2-hydroxy-cyclohexyl)amino)-5-(6-(4-methylpiperazin-1-yl)-1H-benzo[d]imidazol-2-yl)thieno-[2,3-b]pyridin-6(7H)-one] as the compound, how does the IC50 (human HPK1 (MAP4K1)) read?
Answer: ≤ 50 nM

Question: And the IC50 (LCK)?
Answer: 50 to 500 nM

Question: What about the IC50 (FLT3) of the same compound?
Answer: ≤ 50 nM

Question: And the IC75 [1]?
Answer: 300 to 1000 nM

Question: And the minimal effective concentration [2]?
Answer: > 3 µM

Question: What does the source list for CN1CCN(c2ccc3nc(-c4c(N[C@H]5CCC[C@@H]5O)c5ccsc5[nH]c4=O)[nH]c3c2)CC1 [Example A66, 4-(((1S,2S)-2-hydroxycyclopentyl)amino)-5-(6-(4-methylpiperazin-1-yl)-1H-benzo[d]imidazol-2-yl)thieno[2,3-b]pyridin-6(7H)-one]?
Answer: IC50 (human HPK1 (MAP4K1)): ≤ 50 nM; IC50 (LCK): ≤ 50 nM; IC50 (FLT3): ≤ 50 nM

Question: CN1CCN(c2ccc3nc(-c4c(N[C@@H]5CCC[C@H]5O)c5ccsc5[nH]c4=O)[nH]c3c2)CC1 [Example A67, 4-(((1R,2R)-2-hydroxycyclopentyl)amino)-5-(6-(4-methylpiperazin-1-yl)-1H-benzo[d]imidazol-2-yl)thieno[2,3-b]pyridin-6(7H)-one] was tested. Which IC50 (human HPK1 (MAP4K1)) did it give?
Answer: ≤ 50 nM

Question: And the IC50 (LCK)?
Answer: 50 to 500 nM

Question: And the IC50 (FLT3)?
Answer: ≤ 50 nM

Question: Which IC50 (human HPK1 (MAP4K1)) does the source give for CN1CCN(c2cc3[nH]c(-c4c(N)c5sccc5[nH]c4=O)nc3cc2F)CC1 [Example A68, 7-amino-6-(5-fluoro-6-(4-methylpiperazin-1-yl)-1H-benzo[d]imidazol-2-yl)thieno[3,2-b]pyridin-5(4H)-one] here?
Answer: ≤ 50 nM

Question: What about the IC50 (LCK) of the same compound?
Answer: ≤ 50 nM

Question: What about the IC50 (FLT3) of the same compound?
Answer: ≤ 50 nM

Question: How did the IC50 (human HPK1 (MAP4K1)) turn out when CN1CCN(c2ccc3nc(-c4c(N[C@@H]5CCOC5)c5cscc5[nH]c4=O)[nH]c3c2)CC1 [Example A71, (R)-3-(6-(4-methylpiperazin-1-yl)-1H-benzo[d]imidazol-2-yl)-4-((tetrahydrofuran-3-yl)amino)thieno[3,4-b]pyridin-2(1H)-one] was run?
Answer: ≤ 50 nM

Question: And the IC50 (LCK)?
Answer: ≤ 50 nM

Question: And the IC50 (FLT3)?
Answer: ≤ 50 nM

Question: With O=c1[nH]c2sccc2c(N[C@H]2CCCC[C@H]2O)c1-c1nc2ccc(N3CCOCC3)cc2[nH]1 [Example A72, 4-(((1S,2R)-2-hydroxycyclohexyl)amino)-5-(6-morpholino-1H-benzo[d]imidazol-2-yl)thieno[2,3-b]pyridin-6(7H)-one] as the compound, how does the IC50 (human HPK1 (MAP4K1)) read?
Answer: ≤ 50 nM

Question: And the IC50 (LCK)?
Answer: > 500 nM

Question: What about the IC50 (FLT3) of the same compound?
Answer: ≤ 50 nM
